Reference: ChEMBL document CHEMBL3745606, “Dissection of N,N-diethyl-N'-phenylpiperazines as α7 nicotinic receptor silent agonists” (Bioorg Med Chem, 2016)
Activity calls are given as the source filed them. No cut-off for these calls is given here.

Legend:
[1] = biological target: T1, Neuronal acetylcholine receptor; alpha3/beta4 (Homo sapiens) (UniProt P30926+P32297); test: Partial agonist activity at human alpha3beta4 nAChR expressed in xenopus oocytes assessed as induction of PAM-sensitive desensitization at 30 uM by two-electrode voltage clamp electrophysiology relative to acetylcholine; type: cell-based
[2] = biological target: Neuronal acetylcholine receptor subunit alpha-7 (Homo sapiens) (UniProt P36544); test: Agonist activity at human alpha7 nAChR expressed in xenopus oocytes assessed as induction of PAM-sensitive desensitization at 30 uM by two-electrode voltage clamp electrophysiology relative to acetylcholine; type: cell-based
Neuronal acetylcholine receptor subunit alpha-7 (Homo sapiens), sequence (P36544 whole entry): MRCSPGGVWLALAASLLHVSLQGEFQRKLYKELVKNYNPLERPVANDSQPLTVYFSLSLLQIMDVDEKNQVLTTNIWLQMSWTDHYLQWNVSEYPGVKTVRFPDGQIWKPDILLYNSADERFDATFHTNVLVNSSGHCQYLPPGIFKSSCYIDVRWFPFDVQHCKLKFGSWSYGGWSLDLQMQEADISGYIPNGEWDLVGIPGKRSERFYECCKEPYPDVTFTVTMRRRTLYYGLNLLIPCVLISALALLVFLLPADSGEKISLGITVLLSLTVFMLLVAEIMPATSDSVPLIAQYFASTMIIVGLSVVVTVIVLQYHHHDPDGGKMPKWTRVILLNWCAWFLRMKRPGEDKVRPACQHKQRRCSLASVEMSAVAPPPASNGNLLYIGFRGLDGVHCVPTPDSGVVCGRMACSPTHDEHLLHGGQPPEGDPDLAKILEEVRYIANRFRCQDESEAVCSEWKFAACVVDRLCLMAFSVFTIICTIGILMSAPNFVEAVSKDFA

[3] = biological target: Neuronal acetylcholine receptor subunit alpha-7 (Homo sapiens) (UniProt P36544); test: Agonist activity at human alpha7 nAChR expressed in xenopus oocytes assessed as potentiation of PNU-120596-induced PAM-sensitive desensitization at 30 uM by two-electrode voltage clamp electrophysiology relative to acetylcholine; type: cell-based
[4] = biological target: T2, Neuronal acetylcholine receptor; alpha4/beta2 (Homo sapiens) (UniProt P17787+P43681); test: Partial agonist activity at alpha4beta2 nAChR (unknown origin) at 100 uM; type: protein-complex assay
[5] = biological target: T2, Neuronal acetylcholine receptor; alpha4/beta2 (Homo sapiens); test: Antagonist activity at alpha4beta2 nAChR (unknown origin) at 100 uM; type: protein-complex assay
[6] = biological target: Neuronal acetylcholine receptor subunit alpha-7 (Homo sapiens) (UniProt P36544); test: Partial agonist activity at human alpha7 nAChR expressed in xenopus oocytes assessed as induction of PAM-sensitive desensitization at 30 uM by two-electrode voltage clamp electrophysiology relative to acetylcholine; type: cell-based
[7] = biological target: Neuronal acetylcholine receptor subunit alpha-7 (Homo sapiens) (UniProt P36544); test: Partial agonist activity at human alpha7 nAChR expressed in xenopus oocytes assessed as potentiation of PNU-120596-induced PAM-sensitive desensitization at 30 uM by two-electrode voltage clamp electrophysiology relative to acetylcholine; type: cell-based
[8] = biological target: Neuronal acetylcholine receptor subunit alpha-7 (Homo sapiens) (UniProt P36544); test: Partial agonist activity at human alpha7 nAChR expressed in xenopus oocytes assessed as induction of PAM-sensitive desensitization by measuring ratio of peak current to net charge at 30 uM by two-electrode voltage clamp electrophysiology relative to acetylcholine; type: cell-based
[9] = biological target: T1, Neuronal acetylcholine receptor; alpha3/beta4 (Homo sapiens); test: Antagonist activity at human alpha3beta4 nAChR expressed in xenopus oocytes at 100 uM by two-electrode voltage clamp electrophysiology; type: cell-based

Structure (SMILES) | Activity [1] | fold change (FC) [2] | Activity [3] | fold change (FC) [3] | Activity [4] | Activity [5] | fold change (FC) [6] | Activity [7] | fold change (FC) [7] | Ratio [8] | Activity [9]
CC[N+]1(CC)CCN(c2ccc(C(N)=O)cc2)CC1 | inactive | 0.065 | < 10% | 43.9 |  |  |  |  |  |  | 
CC[N+]1(CC)CCN(c2ccc(C)cc2)CC1 | inactive | 0.011 | < 10% | 3.6 |  |  |  |  |  |  | 
CC[N+]1(CC)CCC(=Cc2ccccc2)CC1 | inactive | 0.071 | < 10% | 9.9 |  |  |  |  |  |  | 
CC[N+]1(CC)CCN(c2ccc(OC)cc2OC)CC1 |  | 0.014 | < 10% | 1.1 |  |  |  |  |  |  | 
CC[N+]1(CC)CCN(c2cccc(Br)c2)CC1 | inactive | 0.04 | < 10% | 10 | inactive | inactive |  |  |  |  | 
CCN1CCN(c2cccc(Br)c2)CC1 | inactive | 0 | < 10% | 6.9 |  |  |  |  |  |  | 
CC[N+]1(CC)CCC(Nc2ccccc2)CC1 | inactive | 0.002 | < 10% | 5.6 |  |  |  |  |  |  | 
CC[N+]1(CC)CCN(c2cccc(Cl)c2)CC1 | inactive | 0.02 | < 10% | 4.2 |  |  |  |  |  |  | 
CC[N+]1(CC)CCN(c2cccc(F)c2)CC1 | inactive | 0.061 | < 10% | 0.2 |  |  |  |  |  |  | 
CC[N+]1(CC)CCN(c2ccccc2)CC1 |  | 0.002 | < 10% | 1.3 |  |  |  |  |  |  | 
CC[N+]1(CC)CCN(c2cccc(O)c2)CC1 |  |  |  |  |  |  | 0.283 | < 10% | 31.4 | 0.67 | 
CC[N+]1(CC)CCN(c2cccc(OC)c2)CC1 | inactive | 0.011 | < 10% | 0.6 |  |  |  |  |  |  | Active
CC[N+]1(CC)CCN(c2cccc(C#N)c2)CC1 | inactive | 0.022 | < 10% | 1.5 |  |  |  |  |  |  | 
CC[N+]1(CC)CCN(c2ccc3ccccc3c2)CC1 |  |  |  |  |  |  | 0.143 | < 10% | 15.9 | 0.71 | 
CCN1CCN(c2ccc(C(F)(F)F)cc2)CC1 | inactive | 0 | < 10% | 1.4 |  |  |  |  |  |  | 
CC[N+]1(CC)CCN(c2cccc(C)c2)CC1 | inactive | 0.001 | < 10% | 0.2 |  |  |  |  |  |  | 
CC[N+]1(CC)CCN(c2ccc(OC)cc2)CC1 | inactive | 0.063 | < 10% | 11.6 |  |  |  |  |  |  | 
CC[N+]1(CC)CCN(c2ccc(F)cc2)CC1 | inactive | 0.01 | < 10% | 22.9 |  |  |  |  |  |  | 
CCN1CCN(c2cccc(Cl)c2)CC1 | inactive | 0.009 | < 10% | 0.1 |  |  |  |  |  |  | 
CC[N+]1(CC)CCN(c2ccc(Cl)cc2)CC1 |  |  |  |  |  |  | 0.234 | < 10% | 18.3 | 0.71 | 
CC[N+]1(CC)CCN(c2cccc(C(F)(F)F)c2)CC1 | inactive | 0 | < 10% | 3.1 |  |  |  |  |  |  | 
CC[N+]1(CC)CCN(c2ccc(C(F)(F)F)cc2)CC1 | inactive | 0.032 | < 10% | 61.8 | inactive | inactive |  |  |  |  | 
CC[N+]1(CC)CCN(c2ccccc2Cl)CC1 |  |  |  |  |  |  | 0.367 | < 10% | 36.6 | 0.63 | 
CC[N+]1(CC)CCN(c2ccc(C#N)cc2)CC1 |  |  |  |  |  |  | 0.234 | < 10% | 68 | 0.43 | 
CC[N+]1(CC)CCN(c2cccc(C(N)=O)c2)CC1 | inactive | 0.056 | < 10% | 50.7 |  |  |  |  |  |  | 
CCN1CCN(c2ccc(F)cc2)CC1 | inactive | 0 | < 10% | 0 |  |  |  |  |  |  | 
CC[N+]1(CC)CCN(c2ccc(Br)cc2)CC1 |  | 0.27 | < 10% | 12.3 |  |  |  |  |  |  | 
CC[N+]1(CC)CCN(c2ccccc2C)CC1 |  |  |  |  |  |  | 0.319 | < 10% | 16.4 | 0.46 | 
